Measured values reported in US10300155B2, “Alpha-synuclein ligands” (Washington University, priority 2015, dated 2019).
“And” between values parts separate entries of the source, which are not always exact repeats. Equal entries are not always repeated. Where two headings read alike, the source gives them in different places.

How the values were obtained:
α-synuclein fibrils [1] = biological target: T1, α-synuclein fibrils (Homo sapiens, UniProt P37840); test: Thioflavin T competition assay (Example 130, Table 9), α-synuclein fibrils; format: binding; conditions: average
T1 construct: made in house; host or cells: E. coli BL21(DE3)RIL
Protocol: (§1) Freshly transformed BL21 colonies were inoculated into 2 L baffled flasks containing 250 ml sterilized TB (1.2% bactotryptone, 2.4% yeast extract, 0.4% glycerol, 0.17 M KH2PO4, 0.72 M K2HPO4) with 50 μg/ml ampicillin, and incubated overnight at 37° C. with shaking.
Competition assays used a fixed concentration of α-syn, Aβ, or tau fibrils (1 μM), consisting of 3 μM, 50 nM and 4 μM of ThioflavinT respectively. […] To optimize the determination of selectivity, assays for all three fibril species were set up in parallel using a common set of intermediate compound dilutions for each analog. Reactions were incubated at room temperature for 1.5 h before quantifying bound ligand as described above for the saturation binding assay. […] All data points were performed in triplicate. Nonspecific fluorescence was measured in parallel reactions containing ThioT plus each concentration of competitor but no fibrils, and these measurements were subtracted from the reactions with fibrils to yield fibril-specific fluorescence. Data were analyzed using Graphpad. Prism software (version 4.0) to obtain EC50 values by fitting the data to the equation Y=bottom+(top-bottom)/(1+10^(x−log EC50)).

tau fibrils = tau fibrils (Homo sapiens, UniProt P10636); test: ThT competitive assay for tau fibrils (Table 3); format: binding; set-up: made in house; host or cells: E. coli; conditions: for EC50: tau fibrils
Sequence of tau fibrils (P10636 560-692 limits assumed): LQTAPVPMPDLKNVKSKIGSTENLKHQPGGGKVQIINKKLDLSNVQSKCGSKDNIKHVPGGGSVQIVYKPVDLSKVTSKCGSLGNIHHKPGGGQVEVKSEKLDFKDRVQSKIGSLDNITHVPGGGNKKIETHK
Protocol: Tau fibril recombinant protein was produced in E. coli. Additional preparation was performed in a similar fashion to Example 115.

α-synuclein fibrils [2] = biological target: T1, α-synuclein fibrils; test: ThT competitive assay for α-synuclein fibrils (Table 1); format: binding; conditions: average
Protocol: Upon binding to amyloid fibrils, a peak at approximately 440 nm becomes dominant with the fluorescent emission maximum shifted to 480 nm. This is accompanied by a strong enhancement of the fluorescence.
as §1, with “α-Synuclein recombinant protein was produced in E. coli. […] Freshly” for “Freshly”, “250 mL” for “250 ml”
To determine the concentration of fibrils, the reaction mixture (100 μL) was centrifuged at 18,000×g for 10 minutes to separate fibrils from monomer. The α-synuclein monomer and other soluble proteins in the supernatant were removed, and the fibril pellet was resuspended in 100 μL solution of Tris-HCl (20 mM) and NaCl (100 mM). This fibril suspension was used in a bicinchoninic acid (BCA) protein assay along with a bovine serum albumin (BSA) standard curve to determine the concentration of fibrils in the 72 hour fibril reaction mixture.
To prepare the fibrils for performing binding assays, the fibril reaction mixture prepared above was centrifuged at 18,000×g for 10 minutes.
Once the ThT-α-synuclein saturation binding curve and dissociation constant (Kd) were determined the competitive assay for determining the binding affinity of various test compounds was conducted. […] The mixture was incubated at room temperature for 60 minutes on the shaking plate. The fluorescent intensity for each cell was measured by the fluorescence reader at λex and λem. The Ki value for each compound was calculated by the corresponding inhibition curve.
The Ki values were derived from the EC50 values using the Cheng-Prusoff equation: Ki=EC50/(1+[radioligand]/Kd). See FIGS. 17.1-31.2 for the inhibition curves for each compound in the ThioT competitive binding assay.

[3] = Biodistribution in male Balb/C mice; format: in vivo; conditions: for Biodistribution: Blood / Biodistribution: Bone / Biodistribution: Brain / Biodistribution: Fat / Biodistribution: Heart / Biodistribution: Kidney / Biodistribution: Liver / Biodistribution: Lung / Biodistribution: Muscle / Biodistribution: Pancreas / Biodistribution: Spleen: tail vein, mean ± SD, n = 4; for crossing of the blood brain barrier: judged from brain uptake at 5 min
Protocol: For the biodistribution studies, 100˜130 μCi of [^11C] TZ-20-35 in ˜100 μL of 10% ethanol/saline solution (v/v) was injected via the tail vein into mature male Balb/C mice (19-24 g) under anesthesia (2.5% isoflurane in oxygen at a flow rate of 1 mL/min). A group of at least four […] were used for each time point. […] The whole brain was quickly harvested. At the same time, samples of blood, heart, lung, liver, spleen, pancreas, kidney, muscle, fat, and tail were dissected. All the tissue samples were collected in tared tubes and counted in an automated gamma counter (Beckman Gamma 8000 well counter) with standards, prepared by diluting the injectate. The counted tissues were then weighed, and the % ID/g was calculated (Table 4).

## COc1cc(/C=C/c2ccc3cc(O)ccc3n2)ccn1 [TZ-36-146]
α-synuclein fibrils [1]; read-out: α-synuclein EC50 (avg)
  EC50: 332 nM
α-synuclein fibrils [1]; read-out: α-synuclein Ki (avg)
  Ki: 127 nM
Tau fibrils; average, read-out: Ki (nM) Tau (avg)
  Ki: 113 nM
Tau fibrils; individual determinations, read-out: Ki (nM) Tau
  Ki: 124 nM and 102 nM
Tau fibrils; average, read-out: EC50m (nM) EC50 (avg)
  EC50: 278 nM
Tau fibrils; individual determinations, read-out: EC50m (nM) EC50
  EC50: 305 nM and 251 nM
α-synuclein fibrils [2]; read-out: Ki (nM) α-syn (avg)
  Ki: 127 nM
α-synuclein fibrils [2]; α-synuclein fibrils, read-out: EC50 (nM) EC50 (avg)
  EC50: 332 nM

## O=C(Nc1ccc(OCC[18F])cc1)c1ccc(/C=C/c2ccncc2)cc1 [[^18F]TZ-23-88]
[3]; 5 min post injection
  Biodistribution: Blood: 2.50 ± 0.13 % ID/g
  Biodistribution: Bone: 4.07 % ID/g and 4.07 ± 0.50 % ID/g
  Biodistribution: Brain: 4.59 % ID/g and 4.69 ± 0.70 % ID/g
  Biodistribution: Fat: 2.43 ± 0.42 % ID/g
  Biodistribution: Heart: 4.82 ± 0.47 % ID/g
  Biodistribution: Kidney: 35.67 ± 1.48 % ID/g
  Biodistribution: Liver: 16.30 ± 3.53 % ID/g
  Biodistribution: Lung: 8.50 ± 0.60 % ID/g
  Biodistribution: Muscle: 2.60 ± 0.19 % ID/g
  Biodistribution: Pancreas: 4.91 ± 0.68 % ID/g
  Biodistribution: Spleen: 3.12 ± 0.12 % ID/g
[3]; 30 min post injection
  Biodistribution: Blood: 2.30 ± 0.05 % ID/g
  Biodistribution: Bone: 28.50 % ID/g and 28.50 ± 2.81 % ID/g
  Biodistribution: Brain: 4.07 % ID/g and 4.07 ± 0.21 % ID/g
  Biodistribution: Fat: 1.70 ± 0.17 % ID/g
  Biodistribution: Heart: 2.23 ± 0.06 % ID/g
  Biodistribution: Kidney: 15.72 ± 1.06 % ID/g
  Biodistribution: Liver: 19.56 ± 0.97 % ID/g
  Biodistribution: Lung: 2.57 ± 0.15 % ID/g
  Biodistribution: Muscle: 1.35 ± 0.04 % ID/g
  Biodistribution: Pancreas: 3.02 ± 0.19 % ID/g
  Biodistribution: Spleen: 1.59 ± 0.08 % ID/g
[3]; 60 min post injection
  Biodistribution: Blood: 1.28 ± 0.06 % ID/g
  Biodistribution: Bone: 42.68 % ID/g and 42.68 ± 1.69 % ID/g
  Biodistribution: Brain: 3.21 % ID/g and 3.21 ± 0.14 % ID/g
  Biodistribution: Fat: 0.69 ± 0.10 % ID/g
  Biodistribution: Heart: 1.23 ± 0.05 % ID/g
  Biodistribution: Kidney: 5.59 ± 0.29 % ID/g
  Biodistribution: Liver: 10.71 ± 0.80 % ID/g
  Biodistribution: Lung: 1.31 ± 0.07 % ID/g
  Biodistribution: Muscle: 0.75 ± 0.07 % ID/g
  Biodistribution: Pancreas: 1.84 ± 0.33 % ID/g
  Biodistribution: Spleen: 0.90 ± 0.07 % ID/g
[3]; 120 min post injection
  Biodistribution: Blood: 0.70 ± 0.05 % ID/g
  Biodistribution: Bone: 49.39 % ID/g and 49.39 ± 8.21 % ID/g
  Biodistribution: Brain: 2.37 % ID/g and 2.37 ± 0.14 % ID/g
  Biodistribution: Fat: 0.23 ± 0.12 % ID/g
  Biodistribution: Heart: 0.71 ± 0.12 % ID/g
  Biodistribution: Kidney: 1.94 ± 0.29 % ID/g
  Biodistribution: Liver: 5.59 ± 0.39 % ID/g
  Biodistribution: Lung: 0.71 ± 0.09 % ID/g
  Biodistribution: Muscle: 0.55 ± 0.21 % ID/g
  Biodistribution: Pancreas: 0.98 ± 0.10 % ID/g
  Biodistribution: Spleen: 0.47 ± 0.04 % ID/g
[3]
  crossing of the blood brain barrier: can cross the blood brain barrier and enter the brain
[3]; judged from increasing bone uptake in the mice
  defluorination: strong defluorination

## O=C(Nc1ccc(OCCC[18F])cc1)c1ccc(/C=C/c2ccncc2)cc1 [[^18F]TZ-23-92]
[3]; 5 min post injection
  Biodistribution: Blood: 2.40 ± 0.39 % ID/g
  Biodistribution: Bone: 3.31 % ID/g and 3.31 ± 0.74 % ID/g
  Biodistribution: Brain: 1.51 % ID/g and 1.52 ± 0.18 % ID/g
  Biodistribution: Fat: 1.79 ± 0.55 % ID/g
  Biodistribution: Heart: 2.93 ± 0.34 % ID/g
  Biodistribution: Kidney: 11.17 ± 0.41 % ID/g
  Biodistribution: Liver: 52.44 ± 3.84 % ID/g
  Biodistribution: Lung: 7.70 ± 0.85 % ID/g
  Biodistribution: Muscle: 1.47 ± 0.16 % ID/g
  Biodistribution: Pancreas: 2.03 ± 0.19 % ID/g
  Biodistribution: Spleen: 23.73 ± 4.54 % ID/g
[3]; 30 min post injection
  Biodistribution: Blood: 2.42 ± 0.19 % ID/g
  Biodistribution: Bone: 39.47 % ID/g and 39.48 ± 10.28 % ID/g
  Biodistribution: Brain: 1.55 % ID/g and 1.56 ± 0.08 % ID/g
  Biodistribution: Fat: 1.34 ± 0.30 % ID/g
  Biodistribution: Heart: 2.19 ± 0.19 % ID/g
  Biodistribution: Kidney: 9.10 ± 0.34 % ID/g
  Biodistribution: Liver: 14.47 ± 1.13 % ID/g
  Biodistribution: Lung: 2.30 ± 0.25 % ID/g
  Biodistribution: Muscle: 1.30 ± 0.16 % ID/g
  Biodistribution: Pancreas: 1.87 ± 0.23 % ID/g
  Biodistribution: Spleen: 1.69 ± 0.15 % ID/g
[3]; 60 min post injection
  Biodistribution: Blood: 0.84 ± 0.05 % ID/g
  Biodistribution: Bone: 68.78 % ID/g and 68.78 ± 6.75 % ID/g
  Biodistribution: Brain: 1.46 % ID/g and 1.46 ± 0.16 % ID/g
  Biodistribution: Fat: 0.58 ± 0.13 % ID/g
  Biodistribution: Heart: 0.90 ± 0.07 % ID/g
  Biodistribution: Kidney: 3.87 ± 0.36 % ID/g
  Biodistribution: Liver: 7.00 ± 0.33 % ID/g
  Biodistribution: Lung: 0.83 ± 0.05 % ID/g
  Biodistribution: Muscle: 0.55 ± 0.06 % ID/g
  Biodistribution: Pancreas: 0.98 ± 0.08 % ID/g
  Biodistribution: Spleen: 0.61 ± 0.04 % ID/g
[3]; 120 min post injection
  Biodistribution: Blood: 0.32 ± 0.02 % ID/g
  Biodistribution: Bone: 70.20 % ID/g and 70.20 ± 15.04 % ID/g
  Biodistribution: Brain: 1.0 % ID/g and 1.00 ± 0.11 % ID/g
  Biodistribution: Fat: 0.29 ± 0.10 % ID/g
  Biodistribution: Heart: 0.31 ± 0.02 % ID/g
  Biodistribution: Kidney: 1.67 ± 0.23 % ID/g
  Biodistribution: Liver: 3.50 ± 0.48 % ID/g
  Biodistribution: Lung: 0.36 ± 0.03 % ID/g
  Biodistribution: Muscle: 0.33 ± 0.26 % ID/g
  Biodistribution: Pancreas: 0.61 ± 0.13 % ID/g
  Biodistribution: Spleen: 0.24 ± 0.01 % ID/g
[3]
  crossing of the blood brain barrier: can cross BBB and enter the brain
